Marks after values point to notes of the source that are not given here.
Experiments:
[1] = system: Human endothelial cells (EA.hy 926); experiment: Inhibition of FBS stimulated endothelial cell proliferation (MTT); format: cell-based; settings: for Absorbance (Mean ± SD) at 540 nm: EA.hy926, 10% FBS, 72 h
Method: Cell line: Human endothelial cells (EA.hy 926); test item: IS 181: treatment regimen: multiple additions (3)-72 hours; concentration range: 1 6 g/ml to 5000 6 g/ml (triplicate wells); sera condition: medium containing 10% FBS. […] The cells were then subjected to complete serum starvation. The cells were retreated with 10% FBS to stimulate cellular proliferation. […] Inhibition of FBS stimulated cell proliferation was measured using MTT assay. End point: percentage inhibition of FBS stimulated cell proliferation. Positive controls: anthralin; paclitaxel.

[2] = system: Human endothelial cells (EA.hy 926); experiment: Tube formation in endothelial cells; format: cell-based; design: endothelial morphogenesis on matrigel: dose or concentration left out as unconfirmed; settings: Ea.hy.926, 8 hours
Method: Cell lines: Human endothelial cells (EA.Hy 926); test item: IS 181; treatment regimen; multiple additions (2)—48 hours; concentration range: 100 6 g/ml to 5000 6 g/ml (Duplicate wells); sera condition: medium containing 1% FBS. Non-cytotoxic concentrations of IS 181 were determined using MTT assay. EA.hy926 cells were plated on ECMatrix solution. Cells were treated with IS 181 for 8 hours. Endothelial tubes were visualized under inverted light microscope at 40× magnification and images were captured. End point: visual pattern recognition and scoring of photomicrographs (FIGS. 11A-11G) based on Table-11 below: […]

IFN-γ = experiment: TNF-α stimulated IFN-γ secretion in HaCaT; format: cell-based, Human; design: IFN-γ Conc (μ/ml): unit not given here; settings: for IFN-γ % decrease with respect to TNF-α / IFN-γ Conc (μ/ml): HaCaT + TNF-α, 24 h
Method: (§1) Effect on pro-inflammatory cytokines against TNF-α/LPS+PMA stimulation: TNF-α; IFN-γ; TARC; TSLP; IL-6; IL-8: Cell lines: Human keratinocytes (HaCaT); test item (TI); IS181; experimental steps: pre-treatment of cells with TI for 2 hours; stimulation with TNF-α: 20 ng/ml; stimulation with LPS+PMA-10 μg/ml LPS+40 ng/ml PMA; supernatant collection for cytokine analysis after 24 hours; concentration range: 0.1 μg/ml-100 μg/ml (duplicate wells); cytokines: TNF-α; IFN-γ; TARC; TSLP; IL-6; IL-8. Method of estimating cytokines: ELISA; positive control: dexamethasone.
(§2) Cell line: HaCaT (Human Keratinocytes); TI Treatment regimen: Pretreatment for 2 h; TI Concentration range: 0.1 μg/ml-100 μg/ml (duplicate wells); TNF-α stimulation: 20 ng/ml; LPS+PMA stimulation: 10 μg/ml LPS+40 ng/ml PMA; Time point for supernatants collection: 24 h; Method of estimation: ELISA; Positive control: Dexamethasone

IL-8 = experiment: LPS+PMA stimulated IL-8 secretion in HaCaT; format: cell-based, Human; settings: for IL-8 % decrease with respect to LPS + PMA / IL-8 Conc: HaCaT + LPS + PMA, 24 h
Method: as §1, §2

IL-17 = IL-17 secretion in ConA stimulated splenocytes; format: cell-based, mouse; design: inhibition of IL-17 secretion as compared to Control (ConA) levels: dose or concentration left out as unconfirmed; settings: for % Inhibition of IL-17 wrt Control (ConA) / Conc. of IL-17: splenocytes + ConA, 24 h
Method: Cell lines: mouse splenocytes; test item: IS181; treatment regimen: single addition—24 hours; concentration range: 10 μg/ml-5000 μg/ml.A) Identification of non-cytotoxic concentrations: splenocytes were treated with IS181 for 24 hours. Effect on cell viability was assessed by MTT assay. Concentrations leading to >75% cell viability were selected for IL-17 assay. B) IL-17 assay: splenocytes were treated with IS181 in presence of ConA stimulation for 24 hours. Supernatants were collected and stored at −20° C. till analysed. Levels of IL-17 were analysed in supernatants by ELISA. Percent inhibition of IL-17 secretion was calculated with reference to ConA treated levels. Positive control: curcumin.

[3] = Cell viability of THP-1 (MTT); format: cell-based, Human; settings: human, THP-1 monocytic cells, THP-1, 24 h, read-out: Cell viability (wrt Untreated)
Method: (§3) Cell lines: Human monocytic cell line (THP-1); test item: IS181: treatment regimen; single addition—24 hours; concentration range: 10 μg/ml-5000 μg/ml. A) Identification of non-cytotoxic concentrations: THP-1 cells were treated with IS181 for 24 hours; effect on cell viability was assessed by MTT assay; concentrations leading to >75% cell viability were selected for IL-23 assay. […] Positive control: curcumin. […] Since supernatants corresponding to 5 concentrations were to be tested for […], we also tested 1 mg/ml.

[4] = system: Human monocytic cell line (THP-1); experiment: Cell viability of THP-1 (MTT); format: cell-based
Method: as §3

in vitro = settings: human
Method: The cells were then incubated for 72 hours. Percentage cytotoxicity was determined using MTT assay.

**Q.** Which results are given for “H-WVQRVVEKFLK-OH [IS181, H-Trp-Val-Gln-Arg-Val-Val-Glu-Lys-Phe-Leu-Lys-OH]”?
**A.** inhibition of FBS stimulated cell proliferation ([1]; EA.hy926, 5 μg/ml to 1000 μg/ml): significant inhibition; cytotoxic effects ([1]; EA.hy926, 2000 μg/ml to 5000 μg/ml): cytotoxic effects; Absorbance (Mean ± SD) at 540 nm ([1]; 1 μg/ml): 0.48 ± 0.006; Absorbance (Mean ± SD) at 540 nm ([1]; 5 μg/ml): 0.45 ± 0.027; Absorbance (Mean ± SD) at 540 nm ([1]; 10 μg/ml): 0.46 ± 0.012; Absorbance (Mean ± SD) at 540 nm ([1]; 50 μg/ml): 0.41 ± 0.011; Absorbance (Mean ± SD) at 540 nm ([1]; 100 μg/ml): 0.41 ± 0.012; Absorbance (Mean ± SD) at 540 nm ([1]; 500 μg/ml): 0.33 ± 0.004; Absorbance (Mean ± SD) at 540 nm ([1]; 1000 μg/ml): 0.22 ± 0.008; Absorbance (Mean ± SD) at 540 nm ([1]; 2000 μg/ml): 0.09 ± 0.0003; endothelial morphogenesis on matrigel [2]: Complete inhibition; endothelial tube formation ([2]; 1 6 g/ml to 1000 6 g/m/1): block endothelial tube formation; IFN-γ secretion downregulated as compared to TNF-α stimulated cells (IFN-γ; 0.1 μg/ml-100): 27.1%-40.1%; IFN-γ inhibition (IFN-γ; HaCaT): good extent of IFN-γ and TARC inhibition; IFN-γ % decrease with respect to TNF-α (IFN-γ; 0.1 μg/ml): 35.6%; IFN-γ Conc (μ/ml) (IFN-γ; 0.1 μg/ml): 30.7***; IFN-γ % decrease with respect to TNF-α (IFN-γ; 1 μg/ml): 36.7%; IFN-γ Conc (μ/ml) (IFN-γ; 1 μg/ml): 30.1***; IFN-γ % decrease with respect to TNF-α (IFN-γ; 5 μg/ml): 40.1%; IFN-γ Conc (μ/ml) (IFN-γ; 5 μg/ml): 28.6***; IFN-γ % decrease with respect to TNF-α (IFN-γ; 10 μg/ml): 27.1%; IFN-γ Conc (μ/ml) (IFN-γ; 10 μg/ml): 34.7***; IFN-γ % decrease with respect to TNF-α (IFN-γ; 100 μg/ml): 32.0%; IFN-γ Conc (μ/ml) (IFN-γ; 100 μg/ml): 32.4***; IL-8 inhibition (IL-8; HaCaT): good extent of TSLP and IL-8 inhibition; IL-8 % decrease with respect to LPS + PMA (IL-8; 0.1 μg/ml): 8.8%; IL-8 Conc (IL-8; 0.1 μg/ml): 357.4 pg/mL; IL-8 % decrease with respect to LPS + PMA (IL-8; 1 μg/ml): 19.8%; IL-8 Conc (IL-8; 1 μg/ml): 314.5 pg/mL; IL-8 % decrease with respect to LPS + PMA (IL-8; 5 μg/ml): 4.3%; IL-8 Conc (IL-8; 5 μg/ml): 375.3 pg/mL; IL-8 % decrease with respect to LPS + PMA (IL-8; 10 μg/ml): 19.4%; IL-8 Conc (IL-8; 10 μg/ml): 316.1 pg/mL; IL-8 % decrease with respect to LPS + PMA (IL-8; 100 μg/ml): −18.1%; IL-8 Conc (IL-8; 100 μg/ml): 463.1 pg/mL; inhibition of IL-17 secretion as compared to Control (ConA) levels (IL-17; splenocytes): 48.2%-71.4%; % Inhibition of IL-17 wrt Control (ConA) (IL-17; 10 μg/ml): 71.4%; Conc. of IL-17 (IL-17; 10 μg/ml): 13.3 pg/mL; % Inhibition of IL-17 wrt Control (ConA) (IL-17; 50 μg/ml): 59.5%; Conc. of IL-17 (IL-17; 50 μg/ml): 18.8 pg/mL; % Inhibition of IL-17 wrt Control (ConA) (IL-17; 100 μg/ml): 62.1%; Conc. of IL-17 (IL-17; 100 μg/ml): 17.6 pg/mL; % Inhibition of IL-17 wrt Control (ConA) (IL-17; 500 μg/ml): 48.2%; Conc. of IL-17 (IL-17; 500 μg/ml): 24.1 pg/mL; % Inhibition of IL-17 wrt Control (ConA) (IL-17; 1000 μg/ml): 58.8%; Conc. of IL-17 (IL-17; 1000 μg/ml): 19.2 pg/mL; viability at 24 h, 10 μg/ml ([3]; 10 μg/ml): 81.2%; viability at 24 h, 50 μg/ml ([3]; 50 μg/ml): 84.2%; viability at 24 h, 100 μg/ml ([3]; 100 μg/ml): 90.4%; viability at 24 h, 500 μg/ml ([3]; 500 μg/ml): 88.5%; viability at 24 h, 1 mg/ml ([3]; 1 mg/ml): 61.3%; viability at 24 h, 5 mg/ml ([3]; 5 mg/ml): 15%; cytotoxicity ([4]; THP-1, 10 μg/ml-500 μg/ml): 25%; cytotoxicity ([4]; THP-1, 1 mg/ml): 38.7%; cytotoxicity ([4]; THP-1, 5 mg/ml): 85%; cytotoxicity at 72 h, 5000 μg/ml (in vitro; HaCaT keratinocyte cells): 96.1%; cytotoxicity at 72 h, 10 μg/ml (in vitro; HaCaT keratinocytes): 16.7%; cytotoxicity at 72 h, 50 μg/ml (in vitro; HaCaT keratinocytes): 17.8%; cytotoxicity at 72 h, 500 μg/ml (in vitro; HaCaT keratinocytes): 26.9%; cytotoxicity at 72 h, 1000 μg/ml (in vitro; HaCaT keratinocytes): 82.8%; cytotoxicity at 72 h, 2000 μg/ml (in vitro; HaCaT keratinocytes): 75%
